Data as given in paper PMC9321663, “The DevTox Germ Layer Reporter Platform: An Assay Adaptation of the Human Pluripotent Stem Cell Test” (Toxics, 2022).
Read-outs that look alike come from different tables or passages of the source.

Experiments:
[1] = system: SOX17 (endoderm marker) in RUES2-GLR cells; assay: DevTox GLR-Endo assay: increase in percent SOX17-positive cells (AEID 3093, Sox17_up); format: cell-based, human; settings: for Emax: Homo sapiens; for HIT−CALL: tcpl plot AEID3093, COFF 20.3
Protocol: (§1) The total test chemical incubation period was 48 h.
(§2) (Supplementary Materials).

[2] = cited from earlier work; for Development Toxicant Classification: Table S2; for Classification: developmental toxicant classification (Teratogen / Non-Teratogen) of reference and training chemicals, ref DOI per chemical: 10.1093/toxsci/kft239, 10.1093/toxsci/kfaa014, 10.1177/026119290203000204, 10.1038/s41598-020-59542-x; for DT Class.: developmental toxicant classification, chemicals common with quickPredict
[3] = system: BRA (mesoderm marker) in RUES2-GLR cells; assay: DevTox GLR-Endo assay: increase in percent BRA-positive cells (AEID 3096, Bra_up); format: cell-based, human; settings: for HIT−CALL: tcpl plot AEID3096, COFF 0.774; for MAX_MEAN: tcpl plot AEID3096, maximum mean response; for MAX_MED: tcpl plot AEID3096, maximum median response
Protocol: as §1, §2

[4] = system: SOX17 (endoderm marker) in RUES2-GLR cells; assay: DevTox GLR-Endo assay: decrease in percent SOX17-positive cells (AEID 3094, Sox17_dn)
Protocol: as §1
(§3) Assay plate controls included non-differentiated pluripotent cells maintained in complete Essential 8 Flex medium (baseline control), endoderm differentiated cells (differentiation control), endoderm differentiated cells treated with DMSO (0.2%) (solvent control), and TGF-ß receptor inhibitor SB431542 (1 µM)-treated cells (developmental toxicant-positive control) (Figure S3). All experiments were completed with a minimum of four biological replicates (n = 4).
as §2

RUES2-GLR cells = assay: DevTox GLR-Endo assay: decrease in total cell count, cytotoxicity (AEID 3098, CellCount_dn); settings: for Emax: Homo sapiens, read-out: Cell Count % Max Inhibition
Protocol: as §1, §3, §2

[5] = system: SOX2 (ectoderm and pluripotency marker) in RUES2-GLR cells; assay: DevTox GLR-Endo assay: increase in percent SOX2-positive cells (AEID 3095, Sox2_up); settings: for MAX_MEAN: tcpl plot AEID3095, maximum mean response; for MAX_MED: tcpl plot AEID3095, maximum median response;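 on all read-outs here: cells exposed to test chemicals for 48 h in total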
[6] = tcpl plot AEID3093, maximum mean response, read-out: MAX_MEAN
[7] = tcpl plot AEID3093, maximum median response, read-out: MAX_MED
[8] = Homo sapiens, read-out: DevTox % Max Inhibition
[9] = Homo sapiens, read-out: MAX_MEAN
[10] = Homo sapiens, read-out: MAX_MED
[11] = Table S2, SOX17-positive cells, cutoff 3*bmad
[12] = Table S2, percent SOX17-positive cells, 48 h exposure

## Nc1cccc2c1CN(C1CCC(=O)NC1=O)C2=O (centres unmarked) [Lenalidomide]
[1]; [6]
  Emax: 10.3%
[1]; [7]
  Emax: 9.38%
[1]
  HIT−CALL: 0
[2]
  Development Toxicant Classification: Positive
  Classification: Teratogen
[2]; reference chemicals
  Developmental Toxicant Classification: Positive
[3]
  HIT−CALL: 0
  MAX_MEAN: 0.843 Percent Activity
  MAX_MED: 0.842 Percent Activity
[4]; 48 h exposure during directed endoderm differentiation
  effect on SOX17-positive cells (in words): significant reductions in the SOX17-positive sub-population
[4]; Homo sapiens, 48 h
  IC50: 130 nM
[4]; [8]
  Emax: 78.9%
[4]; [9]
  Emax: 78.8%
[4]; [10]
  Emax: 78.9%
[4]; Homo sapiens, read-out: ga (winning model), tcpl plot AEID3094, gain parameter of winning curve fit (log concentration, µM axis), hit calls only (converted)
  AC50: 0.337 µM
[4]; Homo sapiens, read-out: tp (winning model)
  Emax: 79.2%
[4]; [11]
  Hit Call: Positive
[4]; [12]
  DevTox ACC: 0.05026 µM
[4]; maximum inhibition of SOX17-positive cells, reference chemical testing, 48 h exposure
  % Max Inhibition: 44%
[4]; tcpl plot AEID3094, COFF 20.3
  HIT−CALL: 1
RUES2-GLR cells
  Emax: 44.2%
RUES2-GLR cells; Table S2, 48 h exposure
  Cell Count ACC: 0.1174 µM
RUES2-GLR cells; reference chemical testing, increasing concentrations
  effect on cell counts (in words): cell counts remained constant
[5]
  MAX_MEAN: 0.674 Percent Activity
  MAX_MED: 0.697 Percent Activity

## NNC(=O)c1ccncc1 [Isoniazid]
[1]; [6]
  Emax: 14%
[1]; [7]
  Emax: 13.9%
[1]
  HIT−CALL: 0
[2]
  Development Toxicant Classification: Negative
  Classification: Non-Teratogen
  DT Class.: Neg
[3]
  HIT−CALL: 0
  MAX_MEAN: 0.794 Percent Activity
  MAX_MED: 0.781 Percent Activity
[4]; [8]
  Emax: 3.99%
[4]; [9]
  Emax: 3.77%
[4]; [10]
  Emax: 3.99%
[4]; [11]
  Hit Call: Negative
[4]; [12]
  DevTox ACC: >200 µM
[4]; tcpl plot AEID3094, COFF 20.3
  HIT−CALL: 0
RUES2-GLR cells
  Emax: 7.42%
RUES2-GLR cells; human, 48 h
  Cell Count ACC: >200 µM
[5]
  MAX_MEAN: 0.685 Percent Activity
  MAX_MED: 0.538 Percent Activity

## OB(O)O [Boric acid]
[1]
  HIT−CALL: 0
[1]; tcpl plot AEID3093, maximum mean response
  MAX_MEAN: 7.53 Percent Activity
[1]; tcpl plot AEID3093, maximum median response
  MAX_MED: 7.06 Percent Activity
[2]
  Classification: Teratogen
  DT Class.: Pos
[3]
  HIT−CALL: 0
  MAX_MEAN: 0.818 Percent Activity
  MAX_MED: 0.83 Percent Activity
[4]; DevTox GLR-Endo prediction against developmental toxicant classification
  hit call designation (in words): false negative
[4]; [11]
  Hit Call: Negative
[4]; Table S2, percent SOX17-positive cells relative to DMSO
  DevTox % Max Inhibition: 16.7249%
[4]; [12]
  DevTox ACC: >200 µM
[4]; stratification of training set chemicals
  maximum observed effect level class (% max inhibition): weak (weak (0–20% max inhibition))
[4]; tcpl plot AEID3094, COFF 20.3
  HIT−CALL: 0
[4]; tcpl plot AEID3094, maximum mean response
  MAX_MEAN: 15.7 Percent Activity
[4]; tcpl plot AEID3094, maximum median response
  MAX_MED: 16.7 Percent Activity
RUES2-GLR cells; Table S2, cell count relative to DMSO
  Cell Count % Max Inhibition: 12.3286%
[5]
  MAX_MEAN: 0.45 Percent Activity
  MAX_MED: 0.453 Percent Activity

## O=P1(N(CCCl)CCCl)NCCCO1 (centres unmarked) [Cyclophosphamide]
[1]; read-out: MAX_MEAN
  Emax: 8.69%
[1]; read-out: MAX_MED
  Emax: 8.98%
[1]
  HIT−CALL: 0
[2]
  Development Toxicant Classification: Positive
  Classification: Teratogen
  DT Class.: Pos
[3]
  HIT−CALL: 0
  MAX_MEAN: 0.871 Percent Activity
  MAX_MED: 0.897 Percent Activity
[4]
  DevTox ACC: >200 µM
  HIT−CALL: 0
  Hit Call: Negative
  hit call designation (in words): false negative
[4]; [8]
  Emax: 7.49%
[4]; [9]
  Emax: 6.4%
[4]; [10]
  Emax: 7.49%
[4]; Homo sapiens, read-out: maximum observed effect level class (% max inhibition)
  Emax: 0 to 20%
RUES2-GLR cells
  Emax: 25.6%
RUES2-GLR cells; human
  Cell Count ACC: 100.193 µM
  DevTox-GLR Endo CC: 100.19 µM
  effect on cell count (in words): significant cell loss that did not impact SOX17-positive populations
[5]
  MAX_MEAN: 0.952 Percent Activity
  MAX_MED: 0.491 Percent Activity
